A value given as a limit tells only on which side of the number the result lay.

This experiment deals with Protease (Human immunodeficiency virus 1, UniProt Q9YQ12). Nature of the experiment: Inhibition of HIV1 protease.
Chain of Protease (Q9YQ12 whole entry): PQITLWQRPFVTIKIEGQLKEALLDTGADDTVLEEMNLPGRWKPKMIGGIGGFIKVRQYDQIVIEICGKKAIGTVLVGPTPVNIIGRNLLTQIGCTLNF
The term IC50 denotes the point on the concentration scale where inhibition reaches its midpoint. Read a high IC50 as a need for much substance. Compound `C=C1[C@@H](C)[C@H]2[C@H](Cc3ccc(O)cc3)NC(=O)[C@]23[C@H](OC(C)=O)/C=C/[C@@H](C)C[C@@H](CO)C/C=C/[C@H]3[C@@H]1O` gave an IC50 of 35 µM.

On to `C=C1[C@@H](C)[C@H]2[C@H](Cc3cccc(O)c3)NC(=O)[C@]23[C@H](OC(C)=O)/C=C/[C@@H](C)C[C@@H](CO)C/C=C/[C@H]3[C@@H]1O`, for which the IC50 was 38 µM.

In the case of `C=C1[C@@H](C)[C@H]2[C@H](Cc3cccc(O)c3)NC(=O)[C@]23[C@H](OC(C)=O)/C=C/[C@@H](C)C[C@@](O)(CO)C/C=C/[C@H]3[C@@H]1O`, the half-maximal inhibitory concentration (IC50) was above 50 µM.

On to `C=C1[C@@H](C)[C@H]2[C@H](Cc3ccccc3)NC(=O)[C@]23[C@H](OC(C)=O)/C=C/[C@@H](C)C[C@@](O)(CO)C/C=C/[C@H]3[C@@H]1O`, for which the concentration for half-maximal inhibition (IC50) amounted to 45 µM.

In turn, `C=C1[C@@H](C)[C@H]2[C@H](Cc3ccccc3)NC(=O)[C@]23[C@H](OC(C)=O)/C=C/[C@@H](C)C[C@@H](C)C/C=C/[C@H]3[C@@H]1O` came in with an IC50 of 3 µM.

Compound `C=C1[C@@H](C)[C@H]2[C@H](Cc3ccccc3)NC(=O)[C@]23[C@H](OC(C)=O)/C=C/[C@@H](C)C[C@@H](CO)C/C=C/[C@H]3[C@@H]1O` displayed an IC50 of 22 µM.

The compound `C=C1[C@@H](C)[C@H]2[C@H](Cc3ccc(O)c(O)c3)NC(=O)[C@]23[C@H](OC(C)=O)/C=C/[C@@H](C)C[C@@H](CO)C/C=C/[C@H]3[C@@H]1O` returned an IC50 above 50 µM.

Values taken from ChEMBL document CHEMBL1147361, “Microbial transformation of L-696,474, a novel cytochalasin as an inhibitor of HIV-1 protease” (J Nat Prod, 1993).
